# According to paper PMC8717366, “Synthesis and Pharmacological Characterization of Visabron, a Backbone Cyclic Peptide Dual Antagonist of α4β1 (VLA-4)/α9β1 Integrin for Therapy of Multiple Sclerosis” (JACS Au, 2021):
# Where two headings read alike, the source gives them in different places. Numbered stars: 1 amine (or outer) side, 2 acyl side, 3 side chain; on linkers, the order of the positions; unused ones are H or OH. Bridge positions count the residues as written; N and C are the ends. Square brackets hold non-standard residues; d marks the D form. Peptide text beside a SMILES is read from it. CO = O=C([*:1])[*:2]; Nlys = NCCCCNCC(=O)O
# Test: Pharmacokinetics in rats after single i.v. dose
# Assay type: in vivo, Male Wistar rats
# Method: Pharmacokinetics of Visabron c (4-4) following iv injection:
# Animals-Male Wistar rats (275−300 g, purchased from Harlan, Israel), were used for the surgical procedure. An indwelling cannula was implanted into the right jugular vein, and exteriotrated at the dorsal neck to enable serial systemic blood sampling. After completion of the surgical procedure, the animals were transferred to cages to recover overnight (12−18 h). The animals had free access to water and food during the recovery period and throughout the entire experiment. All surgical and experimental procedures were approved by the Animal Experimental Ethics Committee of the Hebrew University, Hadassah Medical School, Jerusalem. […]
# PK Study-A single dose of Visabron c(4-4) in sterile water (300 μL of a 0.514 mg/mL solution, which was equivalent to a final dose of 0.514 mg/kg) was administered i.v. via the indwelling jugular cannula to each rat. Following dose administration, blood samples were taken at pre -dose, 10, 15, 30, 60, 90 and 130-min from the onset of the drug administration (time zero) via the right jugular vein. Approximately […]
# 350 μL of whole blood was removed, and placed in sodium-heparin containing tubes, and immediately placed in wet ice. Blood was centrifuged at 5322 g for 10 min and a 150 μL aliquot of plasma was transferred to fresh centrifuge tubes and stored at −20 °C pending analysis. PK analysis was performed using standard non-compartmental analysis models in Phoenix WinNonlin®.
# Bioanalytical Method for the Detection of Vis-c(4-4) in Rat Plasma: Plasma samples (150 μL) were spiked with metoprolol (20 μL, 10 μg/mL) as an internal standard. 200 μL of ACN was added to each sample and vortex-mixed for 1 min. The samples were then centrifuged (14635 g, 10 min), and the supernatant was transferred to fresh glass tubes and evaporated to dryness (Vacuum Evaporation System, Labconco, Kansas City, MO, USA). The glass tubes were reconstituted in 80 μL of mobile phase and centrifuged a second time (14635 g, 10 min). The amount of the compounds was determined using an HPLC−MS Waters 2695 Separation Module, equipped with a Micromass ZQ detector. The resulting solution was injected (10 μL) into the HPLC sy stem. The system was conditioned as follows :
# Xterra MS C18, 3.5 µm, 100A, 100 x 2.1 mm column (Waters), an isocratic mobile phase of ACN : water supplemented with 0.1% formic acid (15:85, v/v) and a flow rate of 0.2 mL/ min at 35 °C was used. The limit of quantification the peptide was 25 ng/mL. Calibration curve was prepared by spiking the standard working stock solution with 15 μL of the different concentrations, 20 μL IS (10 μg/ mL) and 135 μl blank rat plasma in a centrifuge tube on the analysis day . […]
# range of 25 ng/Ml to 2.5 μg/mL.
# Blood cell counting and biochemistry analyzes : Male C57BL/6 mice were injected intravenously with 0.2 ml of peptide in a dose of 500 mg/kg. No immediate toxicity symptoms were measured a nd thereafter, acute tolerability was observed. Since the hematopoietic system is one of the most sensitive parameters to assess the toxicity of drugs in humans and animals, tail vein blood samples were taken from control (n=3) and 250 mg/kg Visabron c (4-4) injected mice (n=5), after 24 hours from injection and submitted for hematocrit cell counting and biochemical analysis. […]
# blood count and electrolytes of special importance are normal liver (ALP, alkaline phosphatase; ALT, alanine transaminase and AST, aspartate transaminase) functions and normal kidney (creatinine and blood urea nitrogen) functions, indicating sufficient organ integrity at the end of the experimental period. The data obtained was similar to hematological parameters reported for this mice strain5, and clearly indicates lack of differences on kidney and liver parameters between the two mice groups.
# Visabron c (4-4) safety by in vitro evaluation using PhosphoSens - CSox based kinase assays:
# A powerful method was used to measure the activity of recombinant protein kinases using a […]
smiles,measurement,setting,value
CSCC[C@@H]1NC(=O)[C@H]([C@@H](C)O)NC(=O)CN(C(=O)[C@@H](N)CCCCN)CCCCNC(=O)NCCCCN(CC(=O)N[C@@H](CC(C)C)C(N)=O)C(=O)[C@H](CC(=O)O)NC(=O)[C@H](CC(C)C)NC1=O [visabron c (4–4)] (H-K[Nlys]TMLD[Nlys]L-NH2; linker 2-7 via CO),half-life,"rat, in vivo, iv, 0.515 mg/kg, single i.v. dose 0.515 mg/kg, n = 4",24 min
same,AUC,"rat, in vivo, iv, plasma, single i.v. dose 0.515 mg/kg, n = 4",777 ng·h/mL
same,Vd,"rat, in vivo, iv, read-out: volume of distribution",0.39 L/kg
same,Vd,"rat, in vivo, iv, single i.v. dose 0.515 mg/kg, n = 4, Table 3, read-out: Vd",0.381 ± 0.029 L/kg
same,clearance,"rat, in vivo, iv, single i.v. dose 0.515 mg/kg, n = 4, noncompartmental analysis",11.1 ± 0.5 mL/min/kg
same,t1/2,"single i.v. dose 0.515 mg/kg, n = 4, 0.515 mg/kg",23.8 ± 1.6 min
